The values below come from US20100209406A1, “BACILLUS STRAINS AND METHODS FOR REDUCING E. COLI DISEASE AND ENHANCING PERFORMANCE” (priority 2004, published 2010).

Residues, ends and D or L forms follow the SMILES beside them.

What all share (assay): Antibiotic sensitivity assay (antibiotic discs)
Common to all, as to format: cell-based, Bacillus subtilis

One assay has as its system Bacillus strain 15A-P4. Conditions: antibiotic disc on TSA with 1.0% 15A-P4, 32° C. overnight. The method, then:
(§1) After the plates were solidified, the antibiotic discs were placed onto the agar surface. The plates were incubated at 32° C. overnight. Inhibitory zones were measured in millimeters.

For another assay, the system named is Bacillus strain 3A-P4. As to conditions: antibiotic disc on TSA with 1.0% 3A-P4, 32° C. overnight. The method, then:
as §1

A further assay relates to Bacillus strain 22C-P1. As to conditions: antibiotic disc on TSA with 1.0% 22C-P1, 32° C. overnight. The method, then: as §1

Regarding `CC[C@H](C)[C@H](N)C1=N[C@H](C(=O)N[C@@H](CC(C)C)C(=O)N[C@H](CCC(=O)O)C(=O)N[C@H](C(=O)N[C@H]2CCCCNC(=O)[C@H](CC(N)=O)NC(=O)[C@@H](CC(=O)O)NC(=O)[C@H](Cc3cnc[nH]3)NC(=O)[C@@H](Cc3ccccc3)NC(=O)[C@H]([C@@H](C)CC)NC(=O)[C@@H](CCCN)NC2=O)[C@@H](C)CC)CS1` [Bacitracin] (HELM PEPTIDE1{[CC[C@H](C)[C@H](N)C1=N[C@H](C(=O)[*:2])CS1].L.[dE].I.K.[NCCC[C@@H](N[*:1])C(=O)[*:2]].I.[dF].H.[dD].N}$PEPTIDE1,PEPTIDE1,5:R3-11:R2$$$V2.0), the “Inhibitory Zones” value with Bacillus strain 15A-P4, in the assay with Bacillus strain 3A-P4 and in the assay on Bacillus strain 22C-P1 was 8 Millimeters each time.

For the compound `CCC[C@@H]1C[C@@H](C(=O)N[C@@H]([C@H]2O[C@H](SC)[C@H](O)[C@@H](O)[C@H]2O)[C@@H](C)O)N(C)C1` [Lincomycin], the “Inhibitory Zones” value is on record as 9 Millimeters with Bacillus strain 15A-P4, 8 Millimeters in the assay with Bacillus strain 3A-P4 and 8 Millimeters with Bacillus strain 22C-P1.

Consider `CN(C)[C@@H]1C(=O)C(C(N)=O)=C(O)[C@@]2(O)C(=O)C3=C(O)c4c(O)cccc4[C@@](C)(O)[C@H]3[C@H](O)[C@@H]12` [Oxytetracycxyline], for which the “Inhibitory Zones” value came to 14 Millimeters in the assay with Bacillus strain 15A-P4, 24 Millimeters in the assay with Bacillus strain 3A-P4 and 24 Millimeters with Bacillus strain 22C-P1.

Turning to `CN(C)[C@@H]1C(O)=C(C(N)=O)C(=O)[C@@]2(O)C(O)=C3C(=O)c4c(O)cccc4[C@@](C)(O)[C@H]3C[C@@H]12` [Tetracycline], the “Inhibitory Zones” value with Bacillus strain 15A-P4 was 14 Millimeters; in the assay with Bacillus strain 3A-P4, 26 Millimeters; in the assay with Bacillus strain 22C-P1, 21 Millimeters.

Regarding Gentamycin, the “Inhibitory Zones” value in the assay with Bacillus strain 15A-P4 was found to be 22 Millimeters; in the assay on Bacillus strain 3A-P4, 26 Millimeters; with Bacillus strain 22C-P1 it was 22 Millimeters.

As to Neomycin, the “Inhibitory Zones” value in the assay on Bacillus strain 15A-P4 amounted to 12 Millimeters; with Bacillus strain 3A-P4, 16 Millimeters; with Bacillus strain 22C-P1, 12 Millimeters.

In the case of Penicillin, the “Inhibitory Zones” value in the assay on Bacillus strain 15A-P4 turned out to be 11 Millimeters; in the assay on Bacillus strain 3A-P4, 0 Millimeters; with Bacillus strain 22C-P1 it was 13 Millimeters.
